Experimental data taken from paper PMC10636171 (Cell Death & Disease, 2023).

Columns and labels:
284 kinases = test system: 284 kinases; set-up: method as in PMID 25736998; settings: 100 nM; 284 kinases tested; cited from earlier work
MKN45 xenograft tumor = MKN45 xenograft tumor model; type: in vivo, BALB/c nude mice; settings: 8 mg/kg/d, ig
Description: (§1) Male BALB/c nude mice (5-week old, 18–20 g) were purchased from Beijing Vital River Laboratory Animal Technology (Beijing Vital River LaboratoryAnimal Technology Co., Ltd., Beijing,China) and allowed to acclimate for 1 week, maintained at constant room temperature and fed a standard rodent chow and water. 1 × 10^7 cells/mL cancer cells grown in logarithmic phase were harvested and resuspended in FBS-free 1640 medium. Then, 100 μL of the cell suspension was subcutaneously injected into the right flank of each mouse. When the tumour volume was reached about 600–800 mm^3, it was removed, minced into small pieces of equal volume (2 × 2 × 2 mm^3), and transplanted subcutaneously into the nude mice. When the tumour volume was reached about 200–400 mm^3, the xenograft tumour-bearing nude mice were randomly allocated to five groups (vehicle-treated, 1D228-2mgd-treated, 1D228-4mgd-treated […] Tepotinib-treated groups, with 6 or 8 mice (The number of mice were determined according to previous experience on xenograft tumor models) per group. Each group was dosed by intragastric administration (ig) for 7–14 days. Tumour volume and body weights were recorded every day after drug treatment. At the end of the observation period, the animals were euthanized by cervical dislocation and the tumour bulks were peeled off conformed to the Guide for the Care and Use of Laboratory Animals as published by the US National Institutes of Health (NIH Publication No. 85-23, revised 1996) and approved by the Institutional Ethics Review Board of Binzhou Medical University. There was no blinding was done during the animal experiment. No animals were excluded from the analysis.

[1] = Liver microsomal stability assay; type: in vitro ADME; settings: liver microsomes, pH 7.4
Description: The incubation system (including 0.1 M PH 7.4 phosphate buffer, NADPH generation system, UGT incubation system, 0.5 mg/mL liver microsomal protein and appropriate concentration of drug to be tested) was incubated in a water bath at 37 °C for […]. Each sample was incubated three times in parallel, and an equal volume of pre-chilled acetonitrile was added at preset reaction time points, such as 0, 5, 10, 15, 30 and 60 min. The reaction was terminated by the addition of acetonitrile. The remaining content of the prototype drug in the warm incubation solution was determined by HPLC, HPLC-MC and HPLC-MC/MC.

MHCC97H xenograft tumor = MHCC97H xenograft tumor model; type: in vivo, BALB/c nude mice; settings: Tepotinib group (dose not given), ig, calculated through tumor weight
Description: as §1

HS746T = experiment: CCK8 antiproliferative assay; type: cell-based; settings: Homo sapiens, Hs746T, 72 h, read-out: IC50, cell proliferation
Description: (§2) For cytotoxicity assay, the cells grown in the logarithmic phase were seeded into 96-well plates (7 × 10^3 cells/well) for 24 h, then exposed to different concentrations (10, 5, 1, 0.1, 0.01 and 0.001 μM) of the test compounds for 72 h. After attached cells were incubated with CCK8 (Sigma, USA) for another 1–4 h. Then the absorbance at 450 nm was measured using a multifunction microplate reader (Molecular Devices, Flex Station 3), and each experiment was performed at least in triplicate.

ASPC1 = experiment: CCK8 antiproliferative assay; type: cell-based; settings: Homo sapiens, ASPC1, 72 h, read-out: IC50, cell proliferation
Description: as §2

MKN45 = experiment: CCK8 antiproliferative assay; type: cell-based; settings: Homo sapiens, MKN-45, 72 h, read-out: IC50, cell proliferation
Description: as §2

CN1CCC(COc2cnc(-c3cccc(Cn4nc(-c5cccc(C#N)c5)ccc4=O)c3)nc2)CC1 [Tepotinib, reference compound]
Inhibition of kinases other than c-Met (284 kinases): not able to inhibit any other kinase
TGI (MKN45 xenograft tumor): 67.61%
half-life ([1]; Sprague-Dawley, rat, SD rats liver microsome): 0.301 h
half-life ([1]; cynomolgus monkey, Macaca fascicularis liver microsome): 22.5 h
half-life ([1]; dog, Beagle liver microsome): 1.04 h
half-life ([1]; Human liver microsome): 30.5 h
half-life ([1]; mouse, CD - 1 mice liver microsome): 0.252 h
Tumor growth inhibition (TGI) (MHCC97H xenograft tumor): 63.9%
IC50 (HS746T): 3.6 µM
IC50 (ASPC1): 3.78 µM
IC50 (MKN45): 0.00165 µM
